The source of these data is US20240174618A1, “SUBSTITUTED (2-HETEROARYLOXYPHENYL)SULFONATES, SALTS THEREOF AND THEIR USE AS HERBICIDAL AGENTS” (Bayer Aktiengesellschaft, priority 2021, published 2024).

Type in all cases: in vivo
Assay [1] concerns Pharbitis purpurea (PHBPU). In words: E. Herbicidal post-emergence efficacy, PHBPU. The method in brief:
(§1)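 Greenhouse post-emergence spray, one-leaf stage (2–3 wk after sowing, sandy loam); WP/EC formulation, aqueous + 0.5% additive, 600 l/ha water; rates 320 g/ha or less. Visual rating ~3 wk later vs untreated; 0% = control-like, 100% = dead.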

In assay [2] the test system is Polygonum convolvulus (POLCO). In words: E. Herbicidal post-emergence efficacy, POLCO. The essentials: as §1
Assay [3] relates to Stellaria media (STEME). In words: B. Herbicidal post-emergence efficacy, STEME. The essentials: (§2)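 Post-emergence greenhouse test: one-leaf-stage plants, compound (WP/EC, +0.5% additive, 600 L/ha water, ≤1280 g/ha) applied to green parts; % efficacy scored visually vs untreated after ~3 wk; 100% = plants died.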
Assay [4] relates to Abutilon theophrasti (ABUTH). In words: C. Herbicidal pre-emergence efficacy, ABUTH. The note with it: scored after about 3 weeks. The essentials: (§3)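 Pre-emergence test: formulated compounds sprayed as aqueous suspension or emulsion with 0.5% additive at 600 l/ha onto soil covering sown seeds, at rates corresponding to 320 g/ha or less. After about 3 weeks in greenhouse, efficacy scored visually as percent versus untreated controls (100% = plants dead).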

For assay [5], the system named is Veronica persica (VERPE). Briefly: B. Herbicidal post-emergence efficacy, VERPE. The essentials: as §2
Assay [6] relates to Echinochloa crus-galli (ECHCG). Briefly: C. Herbicidal pre-emergence efficacy, ECHCG. The note with it: scored after about 3 weeks. The essentials:
as §3

The test system of assay [7] is Echinochloa crus-galli (ECHCG). In words: A. Herbicidal pre-emergence efficacy, ECHCG. The conditions noted are these: scored visually after about 3 weeks vs untreated controls. The method in brief: (§4)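 Pre-emergence soil-surface spray in sandy loam pots, WP/EC in water plus 0.5% additive, 600 L/ha. Visual % damage rating after about 3 weeks in greenhouse vs. untreated; 0% = control-like, 100% = dead plants. Rates up to 1280 g/ha.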

For assay [8], the system named is Veronica persica (VERPE). In words: A. Herbicidal pre-emergence efficacy, VERPE. The method in brief: as §4

As for `O=S(=O)(CCC(F)(F)F)Oc1c(Cl)cccc1Oc1ncc(Cl)cn1` [Example I-38], the “Post-emergence efficacy against PHBPU in %” value in assay [1] (application rate 80 g/ha) and in assay [1] (application rate 320 g/ha) was 100% each time. For the same compound, the “Post-emergence efficacy against POLCO in %” value in assay [2] (application rate 80 g/ha) and in assay [2] (application rate 320 g/ha) was 100% each time. The “Post-emergence efficacy against STEME” value in assay [3] (80 g/ha), in assay [3] (320 g/ha) and in assay [3] (1280 g/ha) was 90% in each case. Also, the “Pre-emergence efficacy against ABUTH” value in assay [4] (80 g/ha) and in assay [4] (320 g/ha) was 100% in each case. The “Post-emergence efficacy against VERPE” value in assay [5] (80 g/ha), in assay [5] (320 g/ha) and in assay [5] (1280 g/ha) was 90% in each case. Moreover, the “Pre-emergence efficacy against ECHCG” value in assay [6] (80 g/ha) is given as 100%; in assay [6] (320 g/ha), 100%; in assay [7] (320 g/ha), 90%; in assay [7] (1280 g/ha), 100%. Also, the “Pre-emergence efficacy against VERPE in %” value in assay [8] (320 g/ha) is given as 90%; in assay [8] (1280 g/ha) it was 100%. In addition, the “Pre-emergence efficacy against VERPE” value in assay [8] (dosage 80 g/ha) is on record as 90%.
